Source: article PMC4909242, “Cyclization strategies of meditopes: affinity and diffraction studies of meditope–Fab complexes” (Acta Crystallographica. Section F, Structural Biology …, 2016)

Test system: cetuximab IgG
Assay: Surface plasmon resonance binding kinetics of meditope variants to cetuximab
Details: SPR; for k a / k d: Biacore T100, cetuximab IgG amine-coupled to CM5 chip (5000 RU), HBS-EP+ pH 7.4, flow 30 µl min^−1; for k a: error <38% for values of variants marked ‡; for k d: off-rate independent of peptide concentration

Structure (SMILES)	k a [M^−1 s^−1 × 10^4]	k d [s⁻¹]	increase in affinity compared with the original meditope (ratio of K d to the original disulfide meditope) [fold]	decrease in the on-rate compared with the long meditope (ratio of k a) [fold]
CC(C)C[C@@H]1NC(=O)[C@H](CCCNC(=N)N)NC(=O)[C@H](CCCNC(=N)N)NC(=O)[C@H]([C@@H](C)O)NC(=O)[C@H](CO)NC(=O)[C@H](CC(C)C)NC(=O)[C@H](CC(=O)O)NC(=O)[C@H](Cc2ccccc2)NC(=O)[C@H](CCC(N)=O)NC(=O)CCNC(=O)CCNC(=O)[C@H](CCCCN)NC1=O	5.8	0.091	–	–
CC(C)C[C@@H]1NC(=O)[C@H](CCCNC(=N)N)NC(=O)[C@H](CCCNC(=N)N)NC(=O)[C@H]([C@@H](C)O)NC(=O)[C@H](CO)NC(=O)[C@H](CC(C)C)NC(=O)[C@H](CC(=O)O)NC(=O)[C@H](Cc2ccccc2)NC(=O)[C@H](CCC(N)=O)NC(=O)[C@@H](N)CSSC[C@@H](C(N)=O)NC(=O)[C@H](CCCCN)NC1=O	12	0.018	–	–
CC(C)C[C@@H]1NC(=O)[C@H](CCCNC(=N)N)NC(=O)[C@H](CCCNC(=N)N)NC(=O)[C@H]([C@@H](C)O)NC(=O)[C@H](CO)NC(=O)[C@H](CC(C)C)NC(=O)[C@H](CC(=O)O)NC(=O)[C@H](Cc2ccccc2)NC(=O)[C@H](CCC(N)=O)NC(=O)CCCCCCNC(=O)[C@H](CCCCN)NC1=O	3.8	0.064	–	–
CC(=O)N[C@H]1CSSC[C@@H](C(N)=O)NC(=O)[C@H](CCCCN)NC(=O)[C@H](CC(C)C)NC(=O)[C@H](CCCNC(=N)N)NC(=O)[C@H](CCCNC(=N)N)NC(=O)[C@H]([C@@H](C)O)NC(=O)[C@H](CO)NC(=O)[C@H](CC(C)C)NC(=O)[C@H](CC(=O)O)NC(=O)[C@H](Cc2ccccc2)NC(=O)[C@H](CCC(N)=O)NC1=O	15	0.011	~2.3	–
CC(=O)N[C@H]1CSSC[C@@H](C(=O)NCC(=O)NCC(=O)N[C@@H](CO)C(=O)N[C@@H](CCCCN)C(=O)O)NC(=O)[C@H](CCCNC(=N)N)NC(=O)[C@H](CC(C)C)NC(=O)[C@H](CCCNC(=N)N)NC(=O)[C@H](CCCNC(=N)N)NC(=O)[C@H]([C@@H](C)O)NC(=O)[C@H](CO)NC(=O)[C@H](CC(C)C)NC(=O)[C@H](CC(=O)O)NC(=O)[C@H](Cc2ccccc2)NC(=O)[C@H](CCC(N)=O)NC1=O	–	0.010	–	–
CC(C)C[C@@H]1NC(=O)[C@H](CCCNC(=N)N)NC(=O)[C@H](CCCNC(=N)N)NC(=O)[C@H]([C@@H](C)O)NC(=O)[C@H](CO)NC(=O)[C@H](CC(C)C)NC(=O)[C@H](CC(=O)O)NC(=O)[C@H](Cc2ccccc2)NC(=O)[C@H](CCC(N)=O)NC(=O)CCSSC[C@@H](C(=O)O)NC(=O)[C@H](CCCCN)NC1=O	2.1	0.012	–	~4.4
